The text below walks through data of ChEMBL document CHEMBL1142394, “Morphinane alkaloid dimers from Sinomenium acutum” (J Nat Prod, 2008).

The structures appear in SMILES notation.

One test deals with A549. The experiment in a line: Cytotoxicity against human A549 cells by MTT assay. The format is functional, cell-based. On the technique in general: Formazan colour is commonly taken as a measure of viable cells.
Another test concerns HeLa. The experiment in a line: Cytotoxicity against human HeLa cells by MTT assay. The class given is functional, cell-based.

Consider `COC1=C[C@@H]2[C@@H]3Cc4c(-c5cc(OC)c(O)c6c5C[C@H]5[C@H]7C=C(OC)C(=O)C[C@@]67CCN5C)cc(OC)c(O)c4[C@]2(CCN3C)CC1=O`, for which the IC50 with A549 is 71.8 µM; in the test with HeLa, 70.7 µM.

As to `COC1=C[C@@H]2[C@@H]3Cc4cc(-c5cc6c(c(O)c5OC)[C@@]57CCN(C)[C@@H](C6)[C@H]5C=C(OC)C(=O)C7)c(OC)c(O)c4[C@]2(CCN3C)CC1=O`, the values for the IC50 in the test on A549 and in the test on HeLa were 65.5 µM and 71.7 µM, respectively.

The term IC50 denotes the concentration at which inhibition is half-maximal. Read a low IC50 as greater potency.
